Source: ChEMBL document CHEMBL4396888, “Design and Synthesis of Potent, Selective Inhibitors of Protein Arginine Methyltransferase 4 against Acute Myeloid Leukemia” (J Med Chem, 2019)

Columns and labels:
[1] = biological target: T1, Histone-arginine methyltransferase CARM1 (Homo sapiens, UniProt Q86X55); experiment: Inhibition of PRMT4 (unknown origin) using histone H3 (21 to 44 residues) as substrate measured after 60 mins in presence of SAM by AlphaLisa assay
T1 sequence (Q86X55 whole entry): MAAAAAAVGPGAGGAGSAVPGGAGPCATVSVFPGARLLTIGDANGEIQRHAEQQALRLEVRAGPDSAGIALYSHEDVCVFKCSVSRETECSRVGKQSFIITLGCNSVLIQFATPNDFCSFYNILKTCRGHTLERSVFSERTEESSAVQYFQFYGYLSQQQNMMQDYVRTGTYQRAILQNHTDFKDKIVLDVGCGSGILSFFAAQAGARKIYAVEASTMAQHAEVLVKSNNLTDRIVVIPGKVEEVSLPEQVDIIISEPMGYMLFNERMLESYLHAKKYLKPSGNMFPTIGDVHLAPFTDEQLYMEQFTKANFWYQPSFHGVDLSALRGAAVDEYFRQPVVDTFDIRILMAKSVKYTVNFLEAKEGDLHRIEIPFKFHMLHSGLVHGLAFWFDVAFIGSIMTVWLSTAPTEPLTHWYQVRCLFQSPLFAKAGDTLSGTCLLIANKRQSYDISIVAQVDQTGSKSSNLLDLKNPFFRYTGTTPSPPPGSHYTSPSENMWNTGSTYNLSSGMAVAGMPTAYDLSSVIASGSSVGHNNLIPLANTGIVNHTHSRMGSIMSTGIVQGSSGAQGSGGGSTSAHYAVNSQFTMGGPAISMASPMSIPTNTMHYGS

[2] = biological target: Protein arginine N-methyltransferase 6 (Homo sapiens, UniProt Q96LA8); experiment: Inhibition of PRMT6 (unknown origin) preincubated for 15 mins followed by substrate addition and measured after 60 mins by AlphaLisa assay
Protein arginine N-methyltransferase 6, sequence (Q96LA8 whole entry, the tested form may be a part): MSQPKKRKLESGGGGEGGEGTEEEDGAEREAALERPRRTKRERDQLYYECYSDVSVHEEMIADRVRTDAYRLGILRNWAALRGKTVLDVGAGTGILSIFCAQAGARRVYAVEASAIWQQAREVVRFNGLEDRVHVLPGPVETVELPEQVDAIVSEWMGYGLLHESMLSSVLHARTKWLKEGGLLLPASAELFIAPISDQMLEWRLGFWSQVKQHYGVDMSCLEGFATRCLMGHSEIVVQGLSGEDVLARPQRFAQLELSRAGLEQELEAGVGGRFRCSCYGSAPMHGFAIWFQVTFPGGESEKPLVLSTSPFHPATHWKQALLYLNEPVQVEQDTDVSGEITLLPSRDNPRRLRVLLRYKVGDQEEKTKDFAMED

[3] = biological target: Protein arginine N-methyltransferase 8 (Homo sapiens, UniProt Q9NR22); experiment: Inhibition of PRMT8 (unknown origin) using biotinylated histone H4 (1 to 24 residues) as substrate in presence of [3H]SAM by scintillation proximity assay
Protein arginine N-methyltransferase 8, sequence (Q9NR22 whole entry, the tested form may be a part): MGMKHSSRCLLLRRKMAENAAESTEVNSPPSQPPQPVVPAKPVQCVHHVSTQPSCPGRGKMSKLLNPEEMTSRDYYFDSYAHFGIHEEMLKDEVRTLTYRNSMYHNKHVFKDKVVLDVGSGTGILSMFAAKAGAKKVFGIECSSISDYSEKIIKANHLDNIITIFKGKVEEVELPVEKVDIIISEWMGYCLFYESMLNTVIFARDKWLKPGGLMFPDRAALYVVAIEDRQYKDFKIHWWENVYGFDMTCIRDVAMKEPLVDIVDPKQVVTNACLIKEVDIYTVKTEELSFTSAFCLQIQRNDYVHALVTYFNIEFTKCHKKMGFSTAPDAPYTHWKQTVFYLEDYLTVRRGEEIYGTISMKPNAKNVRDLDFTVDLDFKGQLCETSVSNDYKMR

[4] = biological target: T1, Histone-arginine methyltransferase CARM1; experiment: Inhibition of PRMT4 (unknown origin) using biotinylated […] (1 to 24 residues) as substrate in presence of [3H]SAM by scintillation proximity assay

CNCC(O)CN1CCc2c(cccc2C(=O)Nc2ccccc2)C1 (stereo unspecified)
IC50 [1]: 7980 nM

CNCC(O)CN1CCc2ccccc2CC1 (stereo unspecified)
IC50 [1]: 8340 nM

CNCC(O)CN1CCc2c(cccc2Oc2cc(C)cc(C)c2)C1 (stereo unspecified)
IC50 [1]: 1990 nM

CNCC(O)CN1CCc2ccccc2C1 (stereo unspecified)
IC50 [1]: 5310 nM

CNCC(O)CN1CCc2cc(Br)ccc2C1 (stereo unspecified)
IC50 [1]: 4480 nM

CNCC(O)CN1CCc2c(cccc2-c2ccccc2)C1 (stereo unspecified)
IC50 [1]: 465 nM

CNCC(O)CN1CCc2c(cccc2NCc2ccccc2)C1 (stereo unspecified)
IC50 [1]: 343 nM

CNCC(O)CN1CCCc2ccccc2C1 (stereo unspecified)
IC50 [1]: 3190 nM

CNCC(O)CN1CCc2c(cccc2OCc2ccc(-c3ccccc3)cc2)C1 (stereo unspecified)
IC50 [1]: 120 nM

CNCC(O)CN1CCc2c(cccc2NS(=O)(=O)c2ccccc2)C1 (stereo unspecified)
IC50 [1]: 4260 nM

CNCC(O)CN1CCc2c(cccc2Oc2ccccc2F)C1 (stereo unspecified)
IC50 [1]: 2070 nM

CNCC(O)CN1CCc2c(cccc2Oc2cccc(-c3nccs3)c2)C1 (stereo unspecified)
IC50 [1]: 658 nM

CNCC(O)CN1CCc2c(cccc2OCc2ccc(C#N)cc2)C1 (stereo unspecified)
IC50 [1]: 305 nM

CNCC(O)CN1CCc2c(cccc2Oc2ccc(F)c(Cl)c2)C1 (stereo unspecified)
IC50 [1]: 2050 nM

CNCC(O)CN1CCc2ccc(Br)cc2C1 (stereo unspecified)
IC50 [1]: 5220 nM

CNC[C@H](O)CN1CCc2c(cccc2OCc2ccc(-c3nccs3)cc2)C1
IC50 [1]: 101 nM

CNCCN1CCC(OCc2ccccc2)CC1
IC50 [1]: 32 nM

CNCC(O)CN1CCc2c(cccc2OCc2cccc(F)c2)C1 (stereo unspecified)
IC50 [1]: 530 nM

CNCC(O)CN1CCc2c(cccc2Oc2ccc(C#N)cc2)C1 (stereo unspecified)
IC50 [1]: 2310 nM

CNCC(O)CN1CCc2cc(OCc3ccccc3)ccc2C1 (stereo unspecified)
IC50 [1]: 475 nM

CNCC(O)CN1CCc2c(cccc2Oc2ccc(-c3nccs3)cc2)C1 (stereo unspecified)
IC50 [1]: 279 nM

CNCC(O)CN1CCc2c(Br)cccc2C1 (stereo unspecified)
IC50 [2]: 41200 nM
IC50 [1]: 130 nM

CNCC(O)CN1CCc2c(cccc2Oc2ccccc2)C1 (stereo unspecified)
IC50 [1]: 270 nM

CNCC(O)CN1CCOc2ccccc2C1 (stereo unspecified)
IC50 [1]: > 10000 nM

CNCC(O)CN1CCc2c(cccc2NC(=O)Nc2ccccc2)C1 (stereo unspecified)
IC50 [1]: 3820 nM

CNCC(O)CN1CCc2c(cccc2OCc2ccccc2)C1 (stereo unspecified)
IC50 [1]: 165 nM

CNCC(O)CN1CCc2c(cccc2Nc2ccccc2)C1 (stereo unspecified)
IC50 [1]: 2110 nM

CNCC(O)CN1CCc2c(cccc2OCc2ccc(-c3nccs3)cc2)C1 (racemic)
IC50 [1]: 31 nM

CNCC(O)CN1CCc2c(cccc2OCc2ccc(C(C)(C)C)cc2)C1 (stereo unspecified)
IC50 [1]: 1950 nM

CNCC(O)CN1CCc2c(cccc2Oc2cccc(N)c2)C1 (stereo unspecified)
IC50 [1]: 3490 nM

CC(C)Oc1ccc(-c2c[nH]cc2CN(C)CCN)cc1
IC50 [3]: 4 to 119 nM
IC50 [4]: 4 to 119 nM

CNCC(O)CN1CCCc2c(Br)cccc2C1 (stereo unspecified)
IC50 [1]: 785 nM

CNCC(O)CN1Cc2ccccc2C1 (stereo unspecified)
IC50 [1]: 2460 nM

CNCC(O)CN1CCc2c(cccc2C(=O)NCc2ccccc2)C1 (stereo unspecified)
IC50 [1]: 2130 nM

CNCC(O)CN1CCc2cc(Oc3ccccc3)ccc2C1 (stereo unspecified)
IC50 [1]: 900 nM

CNCC(O)CN1CCc2c(cccc2OCc2cccc(-c3nccs3)c2)C1 (racemic)
IC50 [1]: 43 nM

CNCC(O)CN1CCc2c(cccc2Oc2cccc(F)c2)C1 (stereo unspecified)
IC50 [1]: 2310 nM

CNCC(O)CN1CCc2c(cccc2OCc2ccc(Cl)cc2)C1 (stereo unspecified)
IC50 [1]: 37 nM

CNCC(O)CN1CCc2c(cccc2Oc2ccc(F)cc2)C1 (stereo unspecified)
IC50 [1]: 2610 nM

CNCC(O)CN1CCc2c(cccc2OCc2ccc(F)cc2)C1 (stereo unspecified)
IC50 [1]: 228 nM

CNCC(O)CN1CCc2cccc(Br)c2C1 (stereo unspecified)
IC50 [1]: 772 nM

CNCC(O)CN1CCc2c(cccc2Oc2ccc(Cl)cc2)C1 (stereo unspecified)
IC50 [1]: 1180 nM

CNCC(O)CN1CCc2c(cccc2OCc2ccccc2F)C1 (stereo unspecified)
IC50 [1]: 254 nM

CNCC(O)CN1CCc2c(cccc2NC(=O)c2ccccc2)C1 (stereo unspecified)
IC50 [1]: 6120 nM
